# Measurements: patent US20250213646A1, “BIOACTIVE WALNUT PEPTIDES AND COMPOSITIONS FOR TREATING SKIN” (L'OREAL, priority 2024, published 2025)
# Columns and labels:
# Type in all cases: cell-based
# filaggrin (FLG) = test: Barrier renewal, microneedle ex vivo skin model: filaggrin immunohistochemistry; conditions: 500 μM of each peptide in media; 7-day culture; microneedled human skin explants
# Source text: (§1) Fresh post-abdominoplasty normal human skin samples were acquired from BioIVT Inc. (Westbury, NY). Tissue was defatted and cleaned of blood residue. Tissue was then subjected to treatment using a microneedling pen (36-pin needles, Dr. Pen A6 Cartridges Tips, Dr. Pen Inc., San Jose, CA, USA) with a needle length of 1.5 mm. Tissue was subjected to 5 passes of the microneedle. Following treatment, 1.2 cm diameter skin biopsies were created and cultured at the air-liquid interface. Skin explants not subjected to microneedling served as the untreated control group. Control and microneedle control samples were cultured in Dulbecco's Modified Eagle's Medium (650 μL per well, DMEM with 10% fetal bovine serum and 1% penicillin-streptomycin) at 37° C. and 5% CO2. Treated microneedle samples with the peptides were cultured in DMEM with 10% fetal bovine serum, 1% penicillin-streptomycin. 500 uM of each peptide was dissolved into the media. Treatment medium was changed every other day with the exception of weekends. Following a 7-day culture period, all biopsies were processed for histological and immunohistochemical analysis. Skin explants were processed for hematoxylin and eosin (H&E) staining and immunohistochemical staining against filaggrin (FLG) and transglutaminase 1 (TGM1) according to standard protocol (HistoWiz, Brooklyn, NY).
# [1] = tested on: normal human skin samples; test: Ex vivo chronic inflammation model (CSC): H&E histology; conditions: 500 μM of each peptide; cell stimulation cocktail (CSC); 7-day culture; human skin explants
# Protocol: Fresh post-abdominoplasty normal human skin samples were acquired from BioIVT Inc. (Westbury, NY). Tissue was defatted and cleaned of blood residue. 1.2 cm diameter skin biopsies were created and cultured at the air-liquid interface. Skin explants not subjected to the inflammatory stimulant served as the untreated control group. Control samples were cultured in Dulbecco's Modified Eagle's Medium (650 μL per well, DMEM with 10% fetal bovine serum and 1% penicillin-streptomycin) at 37° C. and 5% CO2. Treated microneedle samples with the peptides were cultured in DMEM with 10% fetal bovine serum, 1% penicillin-streptomycin with a 2× dilution of cell stimulation cocktail (CSC) 500×. Samples treated with the peptide contained 500 μM of each peptide dissolved into the media. Fresh stimulants were made each time replenishing the treatment medium every other day with the exception of weekends. Following a 7-day culture period, all biopsies were processed for histological and immunohistochemical analysis. Skin explants were processed for hematoxylin and eosin (H&E) staining and immunohistochemical staining against filaggrin (FLG) and transglutaminase 1 (TGM1) according to standard protocol (HistoWiz, Brooklyn, NY).
# [2] = tested on: transglutaminase 1 (TGM1); test: Barrier renewal, microneedle ex vivo skin model: TGM1 immunohistochemistry; conditions: 500 μM of each peptide in media; 7-day culture; microneedled human skin explants
# Source text: as §1
# [3] = tested on: Adult Normal Human Epidermal Keratinocytes; test: Differential gene expression (RNA sequencing) in keratinocytes treated with walnut peptides; conditions: 100 uM or 500 uM peptide in culture media
# Protocol: Peptide I, II, and III were investigated for their ability to influence gene expression at concentration at 100 μM abd 500 μM for cells and 250 μM for reconstructed human epidermis (RHE).
# Adult Normal Human Epidermal Keratinocytes (Lot 80819221, Passage 3, ATCC) were expanded and seeded into a 6-well plate at a density of 300,000 cells/well. Cells were grown in Dermal Cell Basal Medium (ATCC PCS-200-030) supplemented with one Keratinocyte Growth Kit (ATCC PCS-200-040). Cells attached overnight and then culture media was aspirated and replaced with media containing either 100 uM or 500 uM of Peptide I, Peptide II, or Peptide III. Cells were cultured for […] with treatment with renewal of treatment medium every other day with the exception of weekends. Following the 7-day incubation period, cells were trypsinized and the cell pellet was snap-frozen using liquid nitrogen. Cells then underwent RNA sequencing. The log 2 fold change for each treatment group compared to untreated control samples for differentially expressed genes (DEGs) related to skin barrier were analyzed. Fold change was plotted via heatmap to show upregulation or downregulation of these genes. Microsoft Excel and GraphPad Prism were used for additional analysis and data presentation. The results are shown in the heatmap of FIG. 1.
Substance,filaggrin expression after microneedling (filaggrin (FLG)),"epidermal stress, spongiosis/vacuole formation induced by CSC (H&E histology, FIG. 4) [1]",expression and localization of TGM1 after microneedling [2],"differentially expressed genes (DEGs) related to skin barrier, log 2 fold change compared to untreated control (FIG. 1) [3]"
Lys-Val-Pro-Pro-Leu-Leu-Tyr (KVPPLLY) (printed: Lys-Val-Pro-Pro-Leu-Leu-Tyr) [Peptide III],increase filaggrin expression,ameliorated,increase the expression of TGM1 and localization,strong benefits to the skin barrier on a cellular level at both concentrations tested
Thr-Trp-Leu-Pro-Leu-Pro-Arg (TWLPLPR) (printed: Thr-Trp-Leu-Pro-Leu-Pro-Arg) [Peptide I],increase filaggrin expression,ameliorated,increase the expression of TGM1 and localization,showed an influence at the higher concentration
Tyr-Val-Leu-Leu-Pro-Ser-Pro-Lys (YVLLPSPK) (printed: Tyr-Val-Leu-Leu-Pro-Ser-Pro-Lys) [Peptide II],increase filaggrin expression,ameliorated,increase the expression of TGM1 and localization,strong benefits to the skin barrier on a cellular level at both concentrations tested
